For the first assay, the system named is Influenza type A (strain A/PR/8/34, ATCC VR-95). The assay can be described thus: Influenza antiviral assay: inhibition of virus-induced cytopathic effects (CPE) in MDCK cells, XTT dye reduction. Type of assay: cell-based. The following applies: Influenza A (H1N1), strain A/PR/8/34, MDCK cells, CPE inhibition at 4 days. A general note: Protection from cytopathic effect is a common read-out in antiviral testing.
Regarding `O=C1c2c(O)c(=O)ccn2N(C23c4ccccc4CC2Cc2c(Cl)cccc23)CN1CCF` (stereo not drawn) [Compound A114], the 50% effective concentration (EC50) was 125 to 250 nM. Same read-out and setting: for `CC1N(CC(F)F)C(=O)c2c(O)c(=O)ccn2N1C12c3ccccc3CC1Cc1c2ccc(F)c1F` (stereo not drawn) [Compound A136] the value was 375 to 500 nM. Same read-out and setting: for `CC1N(CC(F)F)C(=O)c2c(O)c(=O)ccn2N1C12c3ccccc3CC1Cc1c2ccc(F)c1F` (stereo not drawn) [Compound A137] the value was 125 to 250 nM.

The same assay, now with this note: Influenza A virus, H1N1 / PR/8, MDCK, 96 h, strain A/PR/8/34, MDCK cells, CPE inhibition at 4 days.
`O=C1c2c(O)c(=O)ccn2N(C23c4ccccc4CC2Cc2c(Cl)cccc23)CN1CC1CCCC1` (stereo not drawn) [Compound A104] displayed an EC50 of over 500 nM.

`O=C1c2c(O)c(=O)ccn2N(C23c4ccccc4CC2Cc2c(Cl)cccc23)CN1CC(F)F` (stereo not drawn) [Compound A105] displayed an EC50 of under 125 nM.

As for `CN1C(=O)c2c(O)c(=O)ccn2N(C23C(=Cc4c(F)cccc42)Cc2c(F)cccc23)C1CN` (stereo not drawn) [Compound A106, 2-(aminomethyl)-1-(1,8-difluoroindeno[1,2-a]inden-4b(9H)-yl)-5-hydroxy-3-methyl-2,3-dihydro-1H-pyrido[2,1-f][1,2,4]triazine-4,6-dione], the concentration for a half-maximal effect (EC50) was 125 to 250 nM. Still for that read-out and setting: for `CN1C(=O)c2c(O)c(=O)ccn2N(C23c4cccc(F)c4CC2Cc2c(F)cccc23)C1CN` (stereo not drawn) [Compound A107, 2-(aminomethyl)-1-(1,8-difluoro-9a,10-dihydroindeno[1,2-a]inden-4b(9H)-yl)-5-hydroxy-3-methyl-2,3-dihydro-1H-pyrido[2,1-f][1,2,4]triazine-4,6-dione] the value was 125 to 250 nM. As for `O=C1c2c(O)c(=O)ccn2N(C23c4ccccc4CC2Cc2c(Cl)cccc23)CN1CC1CC1` (stereo not drawn) [Compound A108], the half-maximal effective concentration (EC50) was in the range of 250 to 375 nM. On the same count and under the same terms, for `COCCN1CN(C23c4ccccc4CC2Cc2ccccc23)n2ccc(=O)c(O)c2C1=O` (stereo not drawn) [Compound A110] the value was 125 to 250 nM; for `O=C1c2c(O)c(=O)ccn2N(C23c4ccccc4CC2Cc2c(Cl)cccc23)CN1CCF` (stereo not drawn) [Compound A111], 125 to 250 nM; for `O=C1c2c(O)c(=O)ccn2N(C23c4ccccc4CC2Cc2c(Cl)cccc23)CN1CC1CCC1` (stereo not drawn) [Compound A112], 375 to 500 nM. The compound `COCCN1C(=O)c2c(O)c(=O)ccn2N(C23c4ccccc4CC2Cc2c3ccc(F)c2F)C1C` (stereo not drawn) [Compound A113] had an EC50 of 125 to 250 nM.

Take `CC1N(CCF)C(=O)c2c(O)c(=O)ccn2N1C12c3ccccc3CC1Cc1c(Cl)cccc12` (stereo not drawn) [Compound A115]: the EC50 was in the range of 375 to 500 nM. As to `CCN1CN(C23c4ccccc4CC2(C)Cc2cc(F)ccc23)n2ccc(=O)c(O)c2C1=O` (stereo not drawn) [Compound A116], the EC50 is under 125 nM. Same read-out and setting: for `CC(C)CN1C(=O)c2c(O)c(=O)ccn2N(C23c4ccccc4CC2Cc2c(F)cccc23)C1C` (stereo not drawn) [Compound A117] the value was over 500 nM; for `CC(C)CN1C(=O)c2c(O)c(=O)ccn2N(C23c4ccccc4CC2Cc2c(Cl)cccc23)C1C` (stereo not drawn) [Compound A118], over 500 nM; for `CC1N(CCF)C(=O)c2c(O)c(=O)ccn2N1C12c3ccccc3CC1Cc1c(F)cccc12` (stereo not drawn) [Compound A121], 125 to 250 nM.

On to `COCCN1C(=O)c2c(O)c(=O)ccn2N(C23c4ccccc4CC2Cc2c(F)cccc23)C1C` (stereo not drawn) [Compound A124], for which the EC50 is 375 to 500 nM. Same read-out and setting: for `COCCN1C(=O)c2c(O)c(=O)ccn2N(C23c4ccccc4CC2Cc2c(Cl)cccc23)C1C` (stereo not drawn) [Compound A125] the value was 250 to 375 nM; for `CN1CN(C23c4ccccc4CC2(C)Cc2cc(F)ccc23)n2ccc(=O)c(O)c2C1=O` (stereo not drawn) [Compound A126], 125 to 250 nM; for `CC(C)CN1C(=O)c2c(O)c(=O)ccn2N(C23c4ccccc4CC2Cc2c3ccc(F)c2F)C1C` (stereo not drawn) [Compound A127], over 500 nM. On the same count and under the same terms, for `CC1N(CC2CC2)C(=O)c2c(O)c(=O)ccn2N1C12c3ccccc3CC1Cc1c2ccc(F)c1F` (stereo not drawn) [Compound A128] the value was 250 to 375 nM; for `CC1N(CC2CC2)C(=O)c2c(O)c(=O)ccn2N1C12c3ccccc3CC1Cc1c(F)cccc12` (stereo not drawn) [Compound A129], 250 to 375 nM; for `O=C1c2c(O)c(=O)ccn2N(C23c4cccc(F)c4CC2Cc2c(F)cccc23)CN1CC1CCCCO1` (stereo not drawn) [Compound A130], over 500 nM. Still for that read-out and setting: for `O=C1c2c(O)c(=O)ccn2N(C23c4ccccc4CC2Cc2c3ccc(F)c2F)CN1CC1CCCCO1` (stereo not drawn) [Compound A131] the value was 375 to 500 nM; for `CCCN1C(=O)c2c(O)c(=O)ccn2N(C23c4ccccc4CC2Cc2c(Cl)cccc23)C1C` (stereo not drawn) [Compound A132], 250 to 375 nM; for `O=C1c2c(O)c(=O)ccn2N(C23c4ccccc4CC2Cc2c(F)cccc23)CN1CC1CCCCO1` (stereo not drawn) [Compound A133], 125 to 250 nM. In turn, `CCN1C(=O)c2c(O)c(=O)ccn2N(C23c4ccccc4CC2Cc2c(F)cccc23)C1C` (stereo not drawn) [Compound A138] showed an EC50 of 125 to 250 nM.

The compound `CC1N(CC(F)F)C(=O)c2c(O)c(=O)ccn2N1C12c3ccccc3CC1Cc1c(F)cccc12` (stereo not drawn) [Compound A139] showed an EC50 of 125 to 250 nM. Still for that read-out and setting: for `CC1N(CC2CC2)C(=O)c2c(O)c(=O)ccn2N1C12c3ccccc3CC1Cc1c(Cl)cccc12` (stereo not drawn) [Compound A140] the value was 250 to 375 nM. `CC1N(C2CCC2)C(=O)c2c(O)c(=O)ccn2N1C12c3ccccc3CC1Cc1c(F)cccc12` (stereo not drawn) [Compound A141] returned an EC50 of 375 to 500 nM. Same read-out and setting: for `Cc1cc(CN2CN(C34c5ccccc5CC3Cc3ccccc34)n3ccc(=O)c(O)c3C2=O)no1` (stereo not drawn) [Compound A144] the value was under 125 nM.

With `CN1CN(C23c4ccccc4CC2Cc2cccc(F)c23)n2ccc(=O)c(O)c2C1=O` (stereo not drawn) [Compound A145], the EC50 is under 125 nM. On the same count and under the same terms, for `CN1CN(C23c4ccccc4CC2Cc2c3ccc(Cl)c2Cl)n2ccc(=O)c(O)c2C1=O` (stereo not drawn) [Compound A146] the value was under 125 nM; for `CCN1CN(C23c4ccccc4CC2(C)Cc2ccccc23)n2ccc(=O)c(O)c2C1=O` (stereo not drawn) [Compound A147], under 125 nM; for `CCCN1CN(C23c4ccccc4CC2Cc2c3ccc(F)c2F)n2ccc(=O)c(O)c2C1=O` (stereo not drawn) [Compound A148], under 125 nM.

For `CC(C)CN1CN(C23c4ccccc4CC2Cc2c3ccc(F)c2F)n2ccc(=O)c(O)c2C1=O` (stereo not drawn) [Compound A149], the EC50 is under 125 nM. Still for that read-out and setting: for `CN1CN(C23c4ccccc4CC2(C)Cc2ccccc23)n2ccc(=O)c(O)c2C1=O` (stereo not drawn) [Compound A150] the value was under 125 nM; for `CCN1CN(C23c4cccc(F)c4CC2Cc2c(Cl)cccc23)n2ccc(=O)c(O)c2C1=O` (stereo not drawn) [Compound A151], under 125 nM; for `CCN1CN(C23c4ccccc4CC2(OC)Cc2ccccc23)n2ccc(=O)c(O)c2C1=O` (stereo not drawn) [Compound A152], under 125 nM. Same read-out and setting: for `CCCN1CN(C23c4cccc(F)c4CC2Cc2c(F)cccc23)n2ccc(=O)c(O)c2C1=O` (stereo not drawn) [Compound A153] the value was under 125 nM; for `CC(C)CN1CN(C23c4cccc(F)c4CC2Cc2c(F)cccc23)n2ccc(=O)c(O)c2C1=O` (stereo not drawn) [Compound A156], 250 to 375 nM; for `CCN1CN(C23c4ccccc4CC2(CC)Cc2ccccc23)n2ccc(=O)c(O)c2C1=O` (stereo not drawn) [Compound A157], 125 to 250 nM.

For `CC1N(C)C(=O)c2c(O)c(=O)ccn2N1C12c3ccccc3CC1Cc1ccccc12` (stereo not drawn) [Compound A158], the EC50 is 125 to 250 nM.

`CN1CN(C23c4ccccc4CC2Cc2c3ccc(Cl)c2F)n2ccc(=O)c(O)c2C1=O` (stereo not drawn) [Compound A160] returned an EC50 of under 125 nM.

Consider `CCN1CN(C23c4ccccc4CC2Cc2c3ccc(Cl)c2Cl)n2ccc(=O)c(O)c2C1=O` (stereo not drawn) [Compound A161], for which the EC50 is under 125 nM.

As for `CCC12Cc3ccccc3C1(N1CN(C)C(=O)c3c(O)c(=O)ccn31)c1ccccc1C2` (stereo not drawn) [Compound A162], the concentration giving a half-maximal response (EC50) was under 125 nM. Take `CCN1CN(C23c4ccccc4CC2(C)Cc2c3ccc(F)c2F)n2ccc(=O)c(O)c2C1=O` (stereo not drawn) [Compound A164]: the EC50 is under 125 nM.

Take `CN1CN(C23c4ccccc4CC2(C)Cc2c3ccc(F)c2F)n2ccc(=O)c(O)c2C1=O` (stereo not drawn) [Compound A165]: the EC50 was under 125 nM. Take `CCC1N(C)C(=O)c2c(O)c(=O)ccn2N1C12c3ccccc3CC1Cc1ccccc12` (stereo not drawn) [Compound A166]: the EC50 was under 125 nM. Regarding `CC(C)N1CN(C23c4ccccc4CC2(C)Cc2c3ccc(F)c2F)n2ccc(=O)c(O)c2C1=O` (stereo not drawn) [Compound A167], the EC50 is under 125 nM.

The term EC50 denotes the concentration giving half of the maximal effect. A high value points to lower potency in that assay.

Values taken from patent US12037333B2, “Pyridopyrazine and pyridotriazine inhibitors of influenza virus replication” (priority 2018, dated 2024).
